{"source": "patent US20130072543A1", "about": "“Compounds and Compositions for Nucleic Acid Formulation and Delivery” (ARROWHEAD RESEARCH CORPORATION, priority 2011, published 2013)", "tested_on": "Kif11 mRNA", "assay": "In vivo administration of LNPs to mice, H&E histopathology of aberrant mitotic figures", "conditions": "mouse bone marrow, 5 consecutive high power (400×) microscopic fields per sample", "procedure": "In Vivo Administration. Selected LNPs were dosed IV via tail vein injection on three successive days and the indicated tissues (see FIG. 11-13) were harvested and fixed in 10% zinc-formalin overnight, processed, paraffin embedded, sectioned at 5 μm, and stained with hematoxylin and eosin for histopathology assessment. In vivo delivery and Kif11 knockdown was shown with an increase in aberrant mitotic figures as a surrogate for Kif11 mRNA loss in murine liver, spleen and bone marrow tissue. Mitotic figures refer to chromosome aggregation during mitosis.", "note": "Strand notation (5' to 3'): a small letter for the sugar, then the base; units joined by * are phosphorothioate-linked, units joined directly phosphodiester-linked; [ ] holds rarer units or linkages, { } end groups; capitals alone tell only the bases. d = 2'-deoxy (DNA); m = 2'-O-methyl; r = 2'-OH (RNA)", "data": [{"substance": "LUC: control siRNA targeting Firefly Luciferase mRNA, 21 nucleotides, SEQ ID 3 and 4 (chain 1 mCmUmUrAmCrGmCmUrGrArGmUrAmCmUmUmCrGrAdT*dT; chain 2 rUrCrGrArArGmUrArCrUmCrArGrCrGmUrArArGdT*dT; listed as Photinus pyralis)", "values": [{"measurement": "Average no. of aberrant mitotic figures", "value": 0}]}]}
